# Reference: patent US20260184669A1, “LIPID COMPOUND AND COMPOSITION FOR DELIVERY OF ACTIVE SUBSTANCE” (KOREA RESEARCH INSTIUTE OF BIOSCIENCE AND BIOTECHNOLOGY, priority 2022, published 2026)
# Assays:
# [1] = system: CCL2 mRNA level in HEK-293T cells
# female C57BL/6 mice = experiment: Protein expression efficiency of fLuc mRNA-LNPs after intramuscular injection (IVIS whole-body luminescence); type: in vivo; details: fLuc mRNA-LNP, intramuscular injection, luminescence at injection site, mice
# Summary of the method: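 Female C57BL/6 mice (6-10 weeks, n≥4) got intramuscular fLuc mRNA-LNPs at 0.1-0.5 mg/kg mRNA. Injection-site luminescence was imaged under isoflurane at 1-72 h, 10 min after i.p. D-luciferin (200 μL, 15 mg/mL). Expression at 3 h was taken relative to MC3 or SM-102 LNPs.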
# [2] = mRNA encapsulation efficiency (Quant-IT RiboGreen RNA assay); type: physicochemical; details: mRNA encapsulation efficiency of mRNA-LNP made with the ionizable lipid; average of two measurements
# Summary of the method: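 LNP samples read with RiboGreen reagent in TE buffer with or without 2% Triton X-100 (37 °C, 10 min) to release encapsulated mRNA. Fluorescence at λex 480/λem 520 nm; EE % calculated from the two readings, averaged over two independent measurements.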
# [3] = system: IL-6 mRNA level in HEK-293T cells
# [4] = Size, polydispersity index and surface charge of mRNA-LNP (Malvern Zetasizer Nano ZS90); type: physicochemical
# Summary of the method: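 Dynamic/electrophoretic light scattering of LNPs diluted in PBS to a final mRNA concentration of 1 μg/mL. Readouts were particle size, PDI and surface charge.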
# [5] = Apparent pKa of mRNA-LNP by TNS binding assay; type: physicochemical; details: apparent pKa of mRNA-LNP made with the ionizable lipid
# Description: The apparent pKa of the mRNA-LNPs prepared according to Example 27 was determined by analysis using 6-(p-toluidino)-2-naphthalenesulfonic acid sodium salt (TNS; Sigma-Aldrich, USA).
# However, as the pH decreases, the proportion of positively charged ionizable lipids increases, allowing electrostatic interactions with TNS. […] When the pH of the solution increases and the ionizable lipids become neutralized, TNS can no longer engage in electrostatic interactions. Consequently, TNS loses its lipophilic character, exits the hydrophobic domain, and its fluorescence is quenched. Based on this principle, the pKa of LNPs can be measured by plotting the change in TNS fluorescence intensity in response to variations in the surrounding pH as an S-shaped curve, and calculating the […] of the inflection point. […]
# Specifically, a master buffer was prepared containing 10 mM sodium phosphate, 10 mM sodium borate, 10 mM sodium citrate, and 150 mM sodium chloride (NaCl). […] After gently mixing the contents of each well, the fluorescence intensity was measured using a multiplate reader (Cary Eclipse, Agilent Technologies, USA) at an excitation wavelength of λex 330 nm and an emission wavelength of λem 435 nm.
# [6] = system: IL-1β mRNA level in HEK-293T cells
# [7] = system: CCL3 mRNA level in HEK-293T cells
structure (smiles),measurement,setting,value
"CCCCCCCCCCCOC(=O)CCCCCN(CCO)CCCCCCCC(=O)OC(CCCCCCCC)CCCCCCCC [SM-102, reference compound]",CCL2 Average,[1],0.83
same,Total flux 1 hour,female C57BL/6 mice; 1 hour after administration,1.48E+07
same,Total flux 3 hours,female C57BL/6 mice; 3 hours after administration,1.12E+08
same,Total flux 6 hours,female C57BL/6 mice; 6 hours after administration,1.82E+08
same,Total flux 48 hours,female C57BL/6 mice; 48 hours after administration,7.43E+06
same,Total flux 72 hours,female C57BL/6 mice; 72 hours after administration,2.86E+06
same,Total flux,female C57BL/6 mice; after administration,2.27E+07
same,EE (%),[2],94%
same,IL-6 Average,[3],1.82
same,PDI,[4]; mRNA-LNP made with the ionizable lipid at its optimal formulation (Table 2),0.140
same,size (nm) Number,"[4]; mRNA-LNP made with the ionizable lipid at its optimal formulation (Table 2), diluted with PBS to 1 μg/mL mRNA",101 nm
same,Zeta (mV),[4]; surface charge of mRNA-LNP made with the ionizable lipid at its optimal formulation (Table 2),−2.99 mV
same,PKa,[5],6.48
same,IL-1β Average,[6],1.14
same,CCL3 Average,[7],2.41
